Measurements: patent US9663525B2, “Pyrazolopyrimidinyl inhibitors of ubiquitin-activating enzyme” (Millennium Pharmaceuticals, Inc., priority 2012, dated 2017)

Biological target: recombinant human UAE (Homo sapiens (Human), UniProt P22314)
Experiment: Ubiquitin Activating Enzyme (UAE) HTRF assay, human UAE
Conditions: not given

recombinant human UAE, sequence (P22314 whole entry): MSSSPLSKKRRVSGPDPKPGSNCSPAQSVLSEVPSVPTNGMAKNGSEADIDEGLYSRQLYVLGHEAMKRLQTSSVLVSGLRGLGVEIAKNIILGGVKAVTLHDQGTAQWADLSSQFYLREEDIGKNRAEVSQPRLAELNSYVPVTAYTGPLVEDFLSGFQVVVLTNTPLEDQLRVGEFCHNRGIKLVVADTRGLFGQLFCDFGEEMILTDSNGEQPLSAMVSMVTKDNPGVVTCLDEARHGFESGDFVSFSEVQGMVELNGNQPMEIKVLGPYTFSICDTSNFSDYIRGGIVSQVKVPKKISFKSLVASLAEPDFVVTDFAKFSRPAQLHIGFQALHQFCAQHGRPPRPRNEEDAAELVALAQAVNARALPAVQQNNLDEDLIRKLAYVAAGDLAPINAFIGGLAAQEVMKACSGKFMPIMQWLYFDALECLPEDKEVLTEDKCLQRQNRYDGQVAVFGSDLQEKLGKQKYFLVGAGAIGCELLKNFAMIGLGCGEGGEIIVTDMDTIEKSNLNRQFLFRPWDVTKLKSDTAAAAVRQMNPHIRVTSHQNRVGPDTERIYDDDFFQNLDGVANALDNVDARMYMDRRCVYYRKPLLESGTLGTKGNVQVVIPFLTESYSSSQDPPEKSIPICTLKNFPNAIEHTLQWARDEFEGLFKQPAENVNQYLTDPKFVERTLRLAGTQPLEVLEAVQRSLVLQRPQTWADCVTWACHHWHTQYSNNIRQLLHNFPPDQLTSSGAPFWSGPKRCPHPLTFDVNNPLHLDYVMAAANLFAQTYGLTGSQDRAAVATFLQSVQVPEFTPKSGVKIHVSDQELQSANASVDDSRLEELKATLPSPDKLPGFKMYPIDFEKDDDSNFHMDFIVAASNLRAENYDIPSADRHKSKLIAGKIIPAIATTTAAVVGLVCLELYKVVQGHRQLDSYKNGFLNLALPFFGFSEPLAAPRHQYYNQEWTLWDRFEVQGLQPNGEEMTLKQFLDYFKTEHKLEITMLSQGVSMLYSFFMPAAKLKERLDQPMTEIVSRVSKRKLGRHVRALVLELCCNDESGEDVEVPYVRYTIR

| SMILES | IC50 |
| --- | --- |
| NS(=O)(=O)OC[C@H]1C[C@@H](Nc2ccnc3cc(-c4ccccc4Oc4ccccc4)nn23)[C@H](O)[C@@H]1O (racemic) [Compound I-068, (rac)-((1R,2R,3S,4R)-2,3-dihydroxy-4-(2-(2-phenoxyphenyl)pyrazolo[1,5-a]pyrimidin-7-ylamino)cyclopentyl)methyl rel-sulfamate] | 10 to 100 nM |
| NS(=O)(=O)OC[C@H]1C[C@@H](Nc2cc(Cl)nc3cc(-c4ccccc4)nn23)[C@H](O)[C@@H]1O (relative stereo) [Compound I-006, (rac)-{(1R,2R,3S,4R)-4-[(5-chloro-2-phenylpyrazolo[1,5-a]pyrimidin-7-yl)amino]-2,3-dihydroxycyclopentyl}methyl rel-sulfamate] | 100 to 1000 nM |
| NS(=O)(=O)OC[C@H]1C[C@@H](Nc2ccnc3cc(-c4ccccc4SC(F)(F)F)nn23)[C@H](O)[C@@H]1O (racemic) [Compound I-079, (rac)-((1R,2R,3S,4R)-2,3-dihydroxy-4-(2-(2-(trifluoromethylthio)phenyl)pyrazolo[1,5-a]pyrimidin-7-ylamino)cyclopentyl)methyl rel-sulfamate] | 10 to 100 nM |
| NS(=O)(=O)OC[C@H]1C[C@@H](Nc2ccnc3cc(-c4cccc(Oc5ccccc5)c4)nn23)[C@H](O)[C@@H]1O (racemic) [Compound I-051, (rac)-((1R,2R,3S,4R)-2,3-Dihydroxy-4-((2-(3-phenoxyphenyl)pyrazolo[1,5-a]pyrimidin-7-yl)amino)cyclopentyl)methyl rel-sulfamate] | 10 to 100 nM |
| NS(=O)(=O)OC[C@H]1C[C@@H](Nc2cc(Cl)nc3cc(-c4ccc(Br)cc4)nn23)[C@H](O)[C@@H]1O (racemic) [Compound I-008, (rac)-((1R,2R,3S,4R)-4-(2-(4-bromophenyl)-5-chloropyrazolo[1,5-a]pyrimidin-7-ylamino)-2,3-dihydroxycyclopentyl)methyl rel-sulfamate] | 100 to 1000 nM |
| CC1(C)COc2c(-c3cc4nccc(N[C@@H]5C[C@H](COS(N)(=O)=O)[C@@H](O)[C@H]5O)n4n3)cccc21 (racemic) [Compound I-023, (rac)-((1R,2R,3S,4R)-4-(2-(3,3-dimethyl-2,3-dihydrobenzofuran-7-yl)pyrazolo[1,5-a]pyrimidin-7-ylamino)-2,3-dihydroxycyclopentyl)methyl rel-sulfamate] | 10 to 100 nM |
| NS(=O)(=O)OC[C@H]1C[C@@H](Nc2c(Cl)cnc3cc(-c4cccc(SC(F)(F)F)c4)nn23)[C@H](O)[C@@H]1O [Compound I-125, (s.e.)-{(1R,2R,3S,4R)-4-[(6-chloro-2-{3-[(trifluoromethyl)sulfanyl]phenyl}pyrazolo[1,5-a]pyrimidin-7-yl)amino]-2,3-dihydroxycyclopentyl}methyl sulfamate] | 100 to 1000 nM |
| NS(=O)(=O)OC[C@H]1C[C@@H](Nc2ccnc3cc(-c4ccnc(C(F)(F)F)c4)nn23)[C@H](O)[C@@H]1O (racemic) [Compound I-059, (rac)-((1R,2R,3S,4R)-2,3-dihydroxy-4-(2-(2-(trifluoromethyl)pyridin-4-yl)pyrazolo[1,5-a]pyrimidin-7-ylamino)cyclopentyl)methyl rel-sulfamate] | 10 to 100 nM |
| NS(=O)(=O)OC[C@H]1C[C@@H](Nc2ccnc3cc(-c4cccc(-c5ccccc5)c4)nn23)[C@H](O)[C@@H]1O (racemic) [Compound I-003, (rac)((1R,2R,3S,4R)-4-(2-(biphenyl-3-yl)pyrazolo[1,5-a]pyrimidin-7-ylamino)-2,3-dihydroxycyclopentyl)methyl rel-sulfamate] | < 10 nM |
| NS(=O)(=O)OC[C@H]1C[C@@H](Nc2ccnc3cc(-c4cccc(N5CCCC5=O)c4)nn23)[C@H](O)[C@@H]1O (racemic) [Compound I-087, (rac)-((1R,2R,3S,4R)-2,3-dihydroxy-4-(2-(3-(2-oxopyrrolidin-1-yl)phenyl)pyrazolo[1,5-a]pyrimidin-7-ylamino)cyclopentyl)methyl rel-sulfamate] | < 10 nM |
| NS(=O)(=O)OC[C@H]1C[C@@H](Nc2ccnc3cc(-c4ccc(SC(F)(F)F)cc4)nn23)[C@H](O)[C@@H]1O (racemic) [Compound I-080, (rac)-((1R,2R,3S,4R)-2,3-dihydroxy-4-(2-(4-(trifluoromethylthio)phenyl)pyrazolo[1,5-a]pyrimidin-7-ylamino)cyclopentyl)methyl rel-sulfamate] | 10 to 100 nM |
| Cc1ccc(Cl)cc1-c1cc2nccc(N[C@@H]3C[C@H](COS(N)(=O)=O)[C@@H](O)[C@H]3O)n2n1 (racemic) [Compound I-021, (rac)-((1R,2R,3S,4R)-4-(2-(5-chloro-2-methylphenyl)pyrazolo[1,5-a]pyrimidin-7-ylamino)-2,3-dihydroxycyclopentyl)methyl rel-sulfamate] | < 10 nM |
| COc1ccc(OC(F)(F)F)cc1-c1cc2nccc(N[C@@H]3C[C@H](COS(N)(=O)=O)[C@@H](O)[C@H]3O)n2n1 (racemic) [Compound I-066, (rac)-((1R,2R,3S,4R)-2,3-Dihydroxy-4-((2-(2-methoxy-5-(trifluoromethoxy)-phenyl)pyrazolo[1,5-a]pyrimidin-7-yl)amino)cyclopentyl)methyl rel-sulfamate] | < 10 nM |

Continued, values first:

| IC50 | SMILES |
| --- | --- |
| < 10 nM | NS(=O)(=O)OC[C@H]1C[C@@H](Nc2ccnc3cc(-c4ccc5ccccc5n4)nn23)[C@H](O)[C@@H]1O (racemic) [Compound I-042, (rac)-((1R,2R,3S,4R)-2,3-dihydroxy-4-(2-(quinolin-2-yl)pyrazolo[1,5-a]pyrimidin-7-ylamino)cyclopentyl)methyl rel-sulfamate] |
| < 10 nM | Cc1sc(-c2ccccc2)nc1-c1cc2nccc(N[C@@H]3C[C@H](COS(N)(=O)=O)[C@@H](O)[C@H]3O)n2n1 (racemic) [Compound I-038, (rac)-[(1R,2R,3S,4R)-2,3-dihydroxy-4-{[2-(5-methyl-2-phenyl-1,3-thiazol-4-yl)pyrazolo[1,5-a]pyrimidin-7-yl]amino}cyclopentyl]methyl rel-sulfamate] |
| < 10 nM | CC(C)(c1cccc(-c2cc3nccc(N[C@@H]4C[C@H](COS(N)(=O)=O)[C@@H](O)[C@H]4O)n3n2)c1)C(F)(F)F (racemic) [Compound I-058, (rac)-((1R,2R,3S,4R)-2,3-dihydroxy-4-(2-(3-(1,1,1-trifluoro-2-methylpropan-2-yl)phenyl)pyrazolo[1,5-a]pyrimidin-7-ylamino)cyclopentyl)methyl rel-sulfamate] |
| < 10 nM | NS(=O)(=O)OC[C@H]1C[C@@H](Nc2ccnc3cc(-c4coc5ccccc45)nn23)[C@H](O)[C@@H]1O (racemic) [Compound I-049, (rac)-((1R,2R,3S,4R)-4-(2-(benzofuran-3-yl)pyrazolo[1,5-a]pyrimidin-7-ylamino)-2,3-dihydroxycyclopentyl)methyl rel-sulfamate] |
| < 10 nM | NS(=O)(=O)OC[C@H]1C[C@@H](Nc2ccnc3cc(-c4cc5ccccc5[nH]4)nn23)[C@H](O)[C@@H]1O (racemic) [Compound I-024, (rac)-((1R,2R,3S,4R)-4-(2-(1H-indol-2-yl)pyrazolo[1,5-a]pyrimidin-7-ylamino)-2,3-dihydroxycyclopentyl)methyl rel-sulfamate] |
| < 10 nM | NS(=O)(=O)OC[C@H]1C[C@@H](Nc2ccnc3cc(-c4cccc(-c5ccccn5)c4)nn23)[C@H](O)[C@@H]1O (racemic) [Compound I-036, (rac)-((1R,2R,3S,4R)-2,3-Dihydroxy-4-((2-(3-(pyridin-2-yl)phenyl)pyrazolo[1,5-a]pyrimidin-7-yl)amino)cyclopentyl)methyl rel-sulfamate] |
| < 10 nM | NS(=O)(=O)OC[C@H]1C[C@@H](Nc2ccnc3cc(-c4cncc5ccccc45)nn23)[C@H](O)[C@@H]1O (racemic) [Compound I-018, (rac)-((1R,2R,3S,4R)-2,3-dihydroxy-4-(2-(isoquinolin-4-yl)pyrazolo[1,5-a]pyrimidin-7-ylamino)cyclopentyl)methyl rel-sulfamate] |
| < 10 nM | NS(=O)(=O)OC[C@H]1C[C@@H](Nc2ccnc3cc(-c4cccc5cccnc45)nn23)[C@H](O)[C@@H]1O (racemic) [Compound I-017, (rac)-((1R,2R,3S,4R)-2,3-Dihydroxy-4-((2-(quinolin-8-yl)pyrazolo[1,5-a]pyrimidin-7-yl)amino)cyclopentyl)methyl rel-sulfamate] |
| < 10 nM | NS(=O)(=O)OC[C@H]1C[C@@H](Nc2ccnc3cc(-c4c[nH]c5ccccc45)nn23)[C@H](O)[C@@H]1O (racemic) [Compound I-032, (rac)-[(1R,2R,3S,4R)-2,3-dihydroxy-4-{[2-(1H-indol-3-yl)pyrazolo[1,5-a]pyrimidin-7-yl]amino}cyclopentyl]methyl rel-sulfamate] |

Same assay, conditions: human UAE

| IC50 | SMILES |
| --- | --- |
| < 10 nM | COc1ccc(OC(F)(F)F)cc1-c1cc2nccc(N[C@@H]3C[C@H](COS(N)(=O)=O)[C@@H](O)[C@H]3O)n2n1 [Compound I-102, (s.e)-[(1R,2R,3S,4R)-2,3-dihydroxy-4-({2-[2-methoxy-5-(trifluoromethoxy)-phenyl]pyrazolo[1,5-a]pyrimidin-7-yl}amino)cyclopentyl]methyl sulfamate] |
| < 10 nM | CN(C)c1ccc(-c2cc3nccc(N[C@@H]4C[C@H](COS(N)(=O)=O)[C@@H](O)[C@H]4O)n3n2)c2ccccc12 [Compound I-107, (s.e.)-((1R,2R,3S,4R)-4-(2-(4-(dimethylamino)naphthalen-1-yl)pyrazolo[1,5-a]pyrimidin-7-ylamino)-2,3-dihydroxycyclopentyl)methyl sulfamate] |
| < 10 nM | NS(=O)(=O)OC[C@H]1C[C@@H](Nc2ccnc3cc(-c4cccc5ccccc45)nn23)[C@H](O)[C@@H]1O [Compound I-098, (s.e.)-((1R,2R,3S,4R)-2,3-dihydroxy-4-{[2-(1-naphthyl)pyrazolo[1,5-a]pyrimidin-7-yl]amino}cyclopentyl)methyl sulfamate] |
| < 10 nM | NS(=O)(=O)OC[C@H]1C[C@@H](Nc2ccnc3cc(-c4c(OC(F)F)ccc5ccccc45)nn23)[C@H](O)[C@@H]1O [Compound I-110, (s.e.)-((1R,2R,3S,4R)-4-(2-(2-(difluoromethoxy)naphthalen-1-yl)pyrazolo[1,5-a]pyrimidin-7-ylamino)-2,3-dihydroxycyclopentyl)methyl sulfamate] |
